# Tests used:
# [1] = molecular target: T1, P-selectin (Homo sapiens, UniProt P16109); experiment: cellular adhesion on immobilized P-selectin under static conditions (U 937 cells); type: cell-based
# T1 sequence (P16109 42-830): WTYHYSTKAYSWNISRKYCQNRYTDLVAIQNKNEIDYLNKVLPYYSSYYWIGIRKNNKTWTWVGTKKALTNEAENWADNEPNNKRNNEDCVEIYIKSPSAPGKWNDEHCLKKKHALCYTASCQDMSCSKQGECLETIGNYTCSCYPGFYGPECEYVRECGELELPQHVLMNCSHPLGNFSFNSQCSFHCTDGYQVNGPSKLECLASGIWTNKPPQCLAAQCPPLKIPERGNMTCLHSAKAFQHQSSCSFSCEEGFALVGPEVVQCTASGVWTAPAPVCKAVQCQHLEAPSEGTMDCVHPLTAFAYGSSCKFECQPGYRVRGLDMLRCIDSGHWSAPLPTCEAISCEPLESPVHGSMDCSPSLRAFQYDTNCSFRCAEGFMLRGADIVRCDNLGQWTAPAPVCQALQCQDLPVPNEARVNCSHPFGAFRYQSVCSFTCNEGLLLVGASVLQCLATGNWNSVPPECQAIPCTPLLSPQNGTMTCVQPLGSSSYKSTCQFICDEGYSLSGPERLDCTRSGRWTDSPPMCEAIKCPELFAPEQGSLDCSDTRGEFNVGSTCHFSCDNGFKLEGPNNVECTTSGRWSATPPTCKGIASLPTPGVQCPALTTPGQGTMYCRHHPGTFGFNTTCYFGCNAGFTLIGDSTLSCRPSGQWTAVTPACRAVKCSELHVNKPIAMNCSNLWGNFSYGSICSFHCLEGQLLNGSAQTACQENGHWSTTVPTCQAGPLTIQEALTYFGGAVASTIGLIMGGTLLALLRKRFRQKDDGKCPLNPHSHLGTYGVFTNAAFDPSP
# Excerpt: (§1) Test 3: Influence on the Adhesion of the Cells Induced by Selectin
# (§2) Consequently, the effect of laminarin sulphate has been examined through the direct quantification of the cells bond to the selectins immobilized on microplates.
# (§3) The influence of the laminarin sulphate on the adhesion of the cells due to the selectins has been studied first under static conditions as schematically shown on FIG. 3a (E-selectins or P-selectins) and 3b (L-selectins). The selectin has been deposited on a microtitration plate; in that respect and in the case of L-selectin the human chimera Fc of L-selectin has been used. Then, the plate was incubated with the test substance and with cells carrying the ligands of the corresponding selecting, that is to say in the case of L-selectin the human cellular line LS 180 of the adenocarcinoma of the colon and in the case of the selectins P and E the human lymphomic cellular line U 937.
# (§4) The number of cells bond to the microtitration plate after washing and subsequent lysis of these cells was determined and their lactate dehydrogenase content was determined by way of an enzymatic reaction.
# [2] = system: thrombin; experiment: duration of the thrombin coagulation test; type: biochemical
# Excerpt: (§5) The anti-coagulant activity which depends from the concentration of laminarin sulphate has been determined in comparison with that of heparin in the classical coagulation tests APTT or “Aktivierte partielle Thromboplastin-Zeit”, of the duration of the prothrombin, by way of the test so called “HEPTEST” and the duration of the thrombin. The APTT reflects an interaction with the intrinsic system of the coagulation while the duration of prothrombin reflects an interaction with the extrinsic coagulation; the so called “HEPTEST” is a classical test for the measurement of the inhibiting activity of heparin with respect to the Xa factor and the duration of thrombin corresponds to the last step of the coagulation, i.e. the formation of fibrins induced by the thrombin. In contradiction with that of heparin, the activity of laminarin sulphate in the so called “HEPTEST” is more than 20 times weaker. […] The specific activity (IU/mg) in the APTT represents 30% of the activity of heparin and in the case of the duration of thrombin it represents 60%. In order to totally prevent the coagulation it is convenient to use in the case of APTT a concentration 4 times higher and in the case of the duration of thrombin a concentration 20 times higher.
# [3] = system: edema of the ear of the mouse induced with croton oil; experiment: edema of the ear of the mouse induced with croton oil; type: in vivo; settings: for equipotent amount per ear for inhibition of inflammation: topical, with 70 μg croton oil, 4 hours
# Experimental: The topic activity which inhibits inflammation and which is presented by laminarin sulphate, has been tested in the model constituted by the edema of the ear of the mouse induced with croton oil. The control was indomethacin. The tested animals were male mice of the type Swiss CD-1 whose weight was 20 to 25 g. Three groups of tests were carried out on three groups of animals. The first group is a negative control group wherein only the pro-inflammatory agent consisting of croton oil was used. The second group is a positive control group and comprises the use of croton oil and of indomethacin (200 nMol/ear which corresponds to 71.56 μg/ear). The third group relates to the use of laminarin sulphate and comprises the use of 70 μg of croton oil and of increasing amounts of laminarin sulphate (100, 250, 500, 750 and 1000 μg/ear).
# In the case of the control groups, of the group of reference and of the group comprising the use of the different concentrations of laminarin sulphate, 10 mice were used each time. […] On each ear (surface of about 1 cm^2) 70 μg of croton oil were applied at the same time as indomethacin or laminarin sulphate or dexamethasone. Four hours later, samples having a diameter of 7 mm were cut up and weighed.
# For the statistical exploitation an analysis of the variance (ANOVA) as well as the Scheffe test were carried out.
# [4] = system: extrinsic coagulation; experiment: duration of the prothrombin coagulation test; type: biochemical
# Excerpt: as §5
# [5] = system: thrombin; experiment: specific anti-thrombin test using chromogeneous substrates; type: biochemical
# Excerpt: (§6) The effect in the case of the duration of thrombin can be considered as being due to an inhibition of thrombin dependent from the cofactor II heparin. […] For that reason and due to the better effect in the systems of anti-inflammatory tests, the profile “utility/risk” moves in the case of laminarin sulphate unequivocally in the sense of an anti-inflammatory effect. It follows that the anti-inflammatory properties of laminarin sulphate can be advantageously used without the apprehension of undesirable side effects on coagulation.
# [6] = system: complement system (obtained from human serum), alternative route; experiment: inhibition of the activation of the complement by the alternative route (hemolysis of rabbit erythrocytes); type: biochemical; settings: for IC (50), inhibition of the complement by the alternative route: laminarin sulphate without incubation
# Excerpt: (§7) Test 1: Measuring of the Anti-Complementary Activity
# (§8) The complement system plays a key role in the inflammatory processes induced by infections. The substances which inhibit in vitro the activation of the complement are potentially in vivo anti-inflammatory products.
# (§9) The activation of the complement can be carried out by the classical route in which the system antigen-antibody plays a role, or by the so-called alternative route. The anti-complementary activity of laminarin sulphate has been examined in vitro in comparison to that of the above heparin of low molecular weight used as reference (HBPM).
# (§10) The evaluation of the anti-complementary reactivity is carried out by photometric or colorimetric measurement of the hemoglobin freed by lysis of the erythrocytes. The erythrocytes used are sheep antibody-sensitized erythrocytes for the classical route and rabbit erythrocytes for the altern route.
# (§11) In a first step, the product to be tested and the complement system (obtained from human serum) are put into contact with one another and if necessary incubated during 30 minutes and then, in a second step, they are put into contact with the erythrocytes during 45 minutes.
# (§12) The more the test product inhibits the complement, the more the lysis of the erythrocytes is weak and the less the amount of freed hemoglobin is important.
# (§13) The anti-complementary activity is expressed in IC (50) (IC meaning “inhibiting concentration”) which designates the concentration expressed in […] of test substance per ml of mixture of the test substance and the serum (μg/ml), concentration which is necessary to inhibit by 50% the activity of the complement.
# [7] = system: MDA-MB-231, MCF, U937, LS180 cellular lines; experiment: cytotoxicity tests (5 days proliferation with crystal violet or MTT, acute LDH kit); type: cell-based, human; settings: highest tested concentration, 100 μg/ml
# Experimental: In order to test cytoxicity, the following cellular lines were used: MDA-MB-231 (human mammary carcinoma); MCF (human mammary carcinoma); U937—(human lymphoma); and, LS180 (human adenocarcinoma).
# The test used is a 5 days proliferation test and the determination of the number of living cells was carried out by coloration with crystallin violet or crystallin purple. A 5 day proliferation test with determination of the number of living cells using the test MTT has also been carried out. Finally the acute cytotoxicity has been determined using a kit marketed by the company Boehringer Mannheim under the title “Cytotoxicity detection kit” (LDH).
# [8] = system: Xa factor; experiment: HEPTEST coagulation test; type: biochemical; settings: relative to heparin
# Excerpt: as §5
# [9] = system: intrinsic system of the coagulation; experiment: coagulation test APTT; type: biochemical
# Excerpt: as §5
# [10] = system: complement system (obtained from human serum), classical route; experiment: inhibition of the activation of the complement by the classical route (hemolysis of sheep antibody-sensitized erythrocytes); type: biochemical
# Excerpt: as §7, §8, §9, §10, §11, §12, §13
# [11] = system: factor Xa; experiment: specific anti-factor Xa test using chromogeneous substrates; type: biochemical
# Excerpt: as §6
# [12] = system: human chimera Fc of L-selectin; experiment: cellular adhesion on immobilized L-selectin under static conditions (LS 180 cells); type: cell-based
# Sequence of human chimera Fc of L-selectin (P14151 39-318 limits assumed, change not shown): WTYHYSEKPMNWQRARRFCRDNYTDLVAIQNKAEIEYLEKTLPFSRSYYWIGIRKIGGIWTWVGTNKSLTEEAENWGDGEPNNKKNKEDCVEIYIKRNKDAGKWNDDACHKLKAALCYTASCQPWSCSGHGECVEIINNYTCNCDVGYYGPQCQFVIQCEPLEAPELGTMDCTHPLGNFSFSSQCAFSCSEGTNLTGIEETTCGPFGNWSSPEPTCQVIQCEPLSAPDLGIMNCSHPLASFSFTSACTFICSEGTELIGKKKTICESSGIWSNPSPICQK
# Excerpt: as §1, §2, §3, §4
# [13] = system: polymorphnuclear neutrophiles (PMN); experiment: chemotaxy of granulocytes, Boyden Chamber test with C5a (human serum activated with Zymosan); type: cell-based
# Excerpt: Test 2: Examination of the Influence on the Chemiotaxy of the Granulocytes
# The polymorphnuclear neutrophiles or PMN are cells which are characteristic of the infiltrate of the acute inflammation. The movement or the migration of neutrophiles from inside of the blood vessels in direction of the tissues is provoked by molecules which are called chemotaxins. Two chemotaxins are particularly important in the case of the polynuclear neutrophiles, i.e. the fragment C5a of the complement and the interleukin 8 (IL-8). The movement of the neutrophiles can be aleatory (which means that a so called chemokinesis occurs) or can be oriented along the length of a gradient of chemotaxins.
# Consequently, the ability of laminarin sulphate to inhibit the chemotaxy of […] was examined; this study has been carried out in vitro by way of the test called Test of the Boyden Chamber (a variant of the Boyden Chamber having 96 holes was used) the fragment C5a in the form of human serum activated with Zymosan having been used as chemiotaxin. As shown on FIG. 2, the Boyden Chamber comprises 2 compartments respectively 1 and 2 which are separated by a membrane 3 consisting of polycarbonate (dimension of the pores 3 μm). The pores of the said membrane authorize the active passing of the cells but not their passive diffusion.
# The polymorphnuclear neutrophiles PMN are placed in the higher compartment 2 together with the substance to be tested at various doses. The C5a is placed in the lower compartment.
# The measurement of the inhibition of the chemotaxy is carried out by numbering the cells which have been attracted in the lower compartment. For the numbering of the cells, they are lysed with Triton X, and the free peroxidase is then quantified by adding 2,2-azino-di-[3-ethylbenzo-thiazoline] sulfonate or ABTS marketed by Boehringer Mannheim and by measuring at 405 nm the extinction of the colored product which has been formed.
molecule,measurement,setting,value
laminarin sulphate,Inhibition expressed in % of the cellular adhesion on P-selectin,[1]; 5 μg/ml,50 ± 2%
same,Inhibition expressed in % of the cellular adhesion on P-selectin,[1]; 25 μg/ml,63 ± 3%
same,"concentration to totally prevent the coagulation, times higher than heparin",[2]; duration of thrombin,20 times
same,specific activity (IU/mg) in the duration of thrombin as % of the activity of heparin,[2]; relative to heparin,60%
same,times more active than indomethacin from the molar point of view,[3]; 25 nMol laminarin sulphate vs 200 nMol indomethacin,nine
same,inhibiting activity when applied after croton oil instead of simultaneously,"[3]; control experiment, applied after croton oil",no difference
same,efficiency compared with dexamethasone,[3]; equimolar concentration of 0.12 mmol/ear,more efficient than dexamethasone
same,equipotent amount per ear for inhibition of inflammation,[3],250 μg per ear
same,anti-coagulant effect on the duration of prothrombin,[4],no pronounced anti-coagulant effect
same,anti-thrombin activity,[5],nor an anti-thrombin activity
same,times more active on the inhibition of the complement than heparin,[6],10 times
same,prolongation of the activity of the complement,[6]; dose of 2.4 μg/ml,50%
same,prolongation of the activity of the complement,[6]; laminarin sulphate at low concentrations,more than 100%
same,"IC (50), inhibition of the complement by the alternative route",[6],43 µg/mL
same,cytotoxic effect,[7],no cytotoxic effect was noticed
same,"activity in the HEPTEST, times weaker than heparin",[8],more than 20 times
same,"concentration to totally prevent the coagulation, times higher than heparin",[9]; APTT,4 times
same,specific activity (IU/mg) in the APTT as % of the activity of heparin,[9]; relative to heparin,30%
same,"IC (50), inhibition of the activation of the complement by the classical way",[10],0.54 ± 0.06 µg/mL
same,times more active on the inhibition of the complement than heparin,[10],80 times
same,anti-factor Xa activity dependent from anti-thrombin,[11],does not present a significant anti-factor Xa activity
same,Inhibition expressed in % of the cellular adhesion on L-selectin,[12]; 5 μg/ml,33 ± 1%
same,Inhibition expressed in % of the cellular adhesion on L-selectin,[12]; 25 μg/ml,89 ± 10%
same,inhibition of the cellular migration,[13]; 1.67 μg/ml,50%±6%
"COc1ccc2c(c1)c(CC(=O)O)c(C)n2C(=O)c1ccc(Cl)cc1 [indomethacin, reference compound]",equipotent amount per ear for inhibition of inflammation,[3],72 μg per ear
heparin [reference compound],Inhibition expressed in % of the cellular adhesion on P-selectin,[1]; 5 μg/ml,12 ± 5%
same,Inhibition expressed in % of the cellular adhesion on P-selectin,[1]; 25 μg/ml,30 ± 4%
same,"IC (50), inhibition of the complement by the alternative route",[6],464 µg/mL
same,"IC (50), inhibition of the activation of the complement by the classical way",[10],43.7 ± 1.9 µg/mL
same,Inhibition expressed in % of the cellular adhesion on L-selectin,[12]; 5 μg/ml,15 ± 5%
same,Inhibition expressed in % of the cellular adhesion on L-selectin,[12]; 25 μg/ml,32 ± 3%
same,inhibition of the cellular migration,[13]; 1.67 μg/ml,not inhibited
same,inhibition of the cellular migration,[13]; 4.2 μg/ml,10%±5%

# From US7008931B2, “Anti-inflammatory and healing medicine based on laminarin sulphate” (Laboratoires GOEMAR S.A., priority 2000, dated 2006)
